Test results taken from the NIST ThermoML archive (doi:10.1021/acs.jced.5b00367).
± gives the expanded uncertainty stated by the source.

Experiment: mn = molality of the nth substance listed, in mol/kg
Details: 303.15 K, 100 kPa, Liquid, Alternating current cell with electrodes

| SMILES | electrical conductivity (m1 = 1e-05) [S/m] | electrical conductivity (m1 = 3e-05) [S/m] | electrical conductivity (m1 = 4e-05) [S/m] | electrical conductivity (m1 = 5e-05) [S/m] | electrical conductivity (m1 = 6e-05) [S/m] | electrical conductivity (m1 = 0.0005) [S/m] | electrical conductivity (m1 = 0.001) [S/m] | electrical conductivity (m1 = 0.002) [S/m] | electrical conductivity (m1 = 0.0001) [S/m] | electrical conductivity (m1 = 0.005) [S/m] | electrical conductivity (m1 = 0.01) [S/m] | electrical conductivity (m1 = 0.015) [S/m] | further results |
| --- | --- | --- | --- | --- | --- | --- | --- | --- | --- | --- | --- | --- | --- |
| CCCCCCCCCCCCCCCC[N+](CC)(CC)CCCCCCCCCCCCCCCC.[Br-] [diethyldihexadecylammonium bromide] + O | 0.00081 ± 0.00035 | 0.00114 ± 0.00046 | 0.00124 ± 0.0005 | 0.00132 ± 0.00053 | 0.00136 ± 0.00054 | – | – | – | – | – | – | – | electrical conductivity (m1 = 5e-06): 0.00045 ± 0.00023 S/m; electrical conductivity (m1 = 1.5e-05): 0.00106 ± 0.00042 S/m |
| CCCCCCCCCCCCCCCC[N+](C)(C)C.[Br-] [N,N,N-trimethyl-1-hexadecanaminium bromide] + O | – | – | – | – | – | 0.0061 ± 0.0024 | 0.011 ± 0.0044 | 0.0145 ± 0.0058 | – | – | – | – | electrical conductivity (m1 = 0.0002): 0.0028 ± 0.0011 S/m; electrical conductivity (m1 = 0.0008): 0.0092 ± 0.0037 S/m; electrical conductivity (m1 = 0.00085): 0.01 ± 0.004 S/m; electrical conductivity (m1 = 0.0009): 0.0103 ± 0.0041 S/m; electrical conductivity (m1 = 0.0012): 0.012 ± 0.0048 S/m; electrical conductivity (m1 = 0.0014): 0.0128 ± 0.0051 S/m; electrical conductivity (m1 = 0.0016): 0.0135 ± 0.0054 S/m |
| CCCCCCCCCCCC[N+](CC)(CC)CCCCCCCCCCCC.[Br-] [didodecyldiethylammonium bromide] + O | – | 0.00146 ± 0.00059 | 0.00189 ± 0.00076 | 0.0025 ± 0.001 | 0.0032 ± 0.0013 | 0.00484 ± 0.0019 | 0.00678 ± 0.0027 | 0.00928 ± 0.0037 | 0.00362 ± 0.0014 | – | – | – | electrical conductivity (m1 = 0.003): 0.0121 ± 0.0049 S/m |
| CCCCCCCCCCCC[N+](C)(C)C.[Br-] [dodecyltrimethylammonium bromide] + O | – | – | – | – | – | – | 0.014 ± 0.0056 | – | – | 0.055 ± 0.022 | 0.1 ± 0.04 | 0.15 ± 0.06 | electrical conductivity (m1 = 0.012): 0.12 ± 0.048 S/m; electrical conductivity (m1 = 0.0181): 0.165 ± 0.066 S/m; electrical conductivity (m1 = 0.0201): 0.165 ± 0.066 S/m; electrical conductivity (m1 = 0.0252): 0.18 ± 0.072 S/m; electrical conductivity (m1 = 0.0302): 0.195 ± 0.078 S/m; electrical conductivity (m1 = 0.0402): 0.23 ± 0.092 S/m; electrical conductivity (m1 = 0.0502): 0.26 ± 0.1 S/m |
| CCCCCCCCCC[N+](CC)(CC)CCCCCCCCCC.[Br-] [didecyldiethylammonium bromide] + O | 0.00039 ± 0.00019 | 0.00072 ± 0.0003 | 0.00143 ± 0.00058 | 0.00224 ± 0.0009 | 0.00293 ± 0.0012 | 0.0048 ± 0.0019 | 0.0092 ± 0.0037 | – | 0.0034 ± 0.0014 | 0.0106 ± 0.0042 | 0.0132 ± 0.0053 | 0.016 ± 0.0064 | electrical conductivity (m1 = 2e-05): 0.0006 ± 0.00025 S/m; electrical conductivity (m1 = 0.02): 0.0182 ± 0.0073 S/m |
